# Results from patent US20140005260A1 (TRI-SERVICE GENERAL HOSPITAL, priority 2012, published 2014).
# Assays:
# B16OVA cells = tested on: B16OVA cells
# Protocol: (§1) For wound healing assays, B16OVA, JC or 4T-1 cells (1×10^6) were seeded onto 6-well plates in DMEM/RPMI 1640 medium and maintained at 37° C. until they reached 95% confluence. The monolayer of cells was wounded by a sterile pipette tip to create a 1-mm cell-free path. Culture medium was removed and the samples were washed with PBS, followed by culturing in DMEM/RPMI 1640 medium with 10 μg/ml of the Mitomycin C. Cells were photographed under a low-magnification microscope. […] The distances between the wounding centre and the front of the migrating cells (vertical axis) were measured for statistical analysis. […] To determine cell migration in the absence of cell proliferation, Mitomycin C was used to block mitosis and thus allowed the analysis of cell migration in the absence of cell proliferation.
# JC cells [1] = conditions: Mitomycin C alone, 10 μg/ml
# Protocol: as §1
# JC cells [2] = assay: Tumor growth in Balb/c mice after SC injection of treated JC cells; format: in vivo; conditions: tumors from treated JC cells, vs control group and Mitomycin C-treated group
# Text: […]. […] For each group of tumors, the average volume for 3 tumors is plotted. Bars=95% confidence intervals.
# Balb/c mice were inoculated by SC injection into the flank with contorl-Mitomycin C- or Amiodarone-treated JC cells. Each group had 3 mice, which were assigned to experimental groups randomly. All the other mice were sacrificed 2 weeks after treatment. […].
# [3] = tested on: zebrafish embryos Tg(cmlc2:HcRFP); assay: In vivo observation of cardiac valve development in zebrafish embryos by HGM/2PF
# Protocol: The zebrafish AB strain, as well as transgenic lines Tg(cmlc2:HcRFP) and Tg(cmlc2:EGFP), were cultured as previously described. Heart formation was observed under fluorescent stereomicroscopy (MZ Leica). […] The excitation source was a femtosecond Cr:forsterite laser with an output wavelength of 1230 nm. Second harmonic generation (SHG) and third harmonic generation (THG; J Struct Biol. 2004 147: 19-30) were applied to observe valve development in transgenic zebrafish Tg(cmlc2:HcRFP) in vivo. RFP marked the myocardial cells, while THG (410 nm) marked all cells in yellow, and SHG (615 nm) marked the skeletal and cardiac muscles in green. Paraffin sectioning with Hematoxylin and Eosin (H&E) staining was also used to perform histochemical analysis of the heart.
# (§2) EGFR inhibitor AG 1478 (CalBiochem) was dissolved in DMSO and stocked as 1 mM at −20° C. […] Before use, the solution was re-dissolved at 65° C. for 1 h. In the control group, 100 embryos were placed in a 9 cm dish filled with a volume of 30 ml embryo medium containing 0.2 mM 1-phenyl-2-thio-urea (Sigma). […] Long-term treatment during 12-72 hpf included the specification stage of valve formation at 36-55 hpf and the invagination stage of valve formation at 55 hpf. Treatment during 12-48 hpf was used to examine the gene markers versican and cdh5 which expressed at the AVC.
# By using HGH/2 PF to examine the zebrafish embryos derived from transgenic line Tg(cmlc2:HcRFP), the dynamics of valve development in vivo could easily be observed. For example, at 48 hpf, there was a single layer of cells in the endocardium at the AVC (FIG. 1A). […] Finally, at 87 hpf, the elongated structure was protruding towards the ventricle (FIG. 1C).
# B16OVA [4] = assay: Versican V1, V2, Snail and E-cadherin protein level in treated cells; format: cell-based, murine; conditions: 15 μM for 24 hr
# Text: (§3) […]. […] […]. […] […].
# B16OVA [5] = assay: MTT cell survival assay; format: cell-based, murine; conditions: 24 hr
# Protocol: (§4) […]. Data is represented as a percentage of the DMSO control (DMSO), which is set to 100% and is expressed as mean±SEM (n=3).
# (§5) It is well known that the Versican V1 increases EGFR signaling. […]. […]. Cells were plated at a density of 1×10^4 per well in 96-well plates and incubated for 12-16 h to allow cells to adhere. After 24 h, 0.5 mg/mL 3-(4,5-dimethylthiazol-2-yl)-2,5-diphenyltetrazolium bromide (MTT; Sigma) was added, and the cells were incubated for 4 h. Following incubation, each well was added 100 μl of 10% SDS/0.01N HCl solution and shaking for 5 min. Then, the absorbance was measured at 570 nm. Results were representative of three independent experiments, each done in quintuplicate. […].
# S-vcanb = assay: Western blot of S-vcanb protein in zebrafish embryos; format: in vivo; conditions: treated embryos
# 4T-1 cells [6] = assay: Versican V1, V2, Snail and E-cadherin protein level in treated cells; format: cell-based, mouse; conditions: 15 μM for 24 hr
# Text: as §3
# JC [7] = assay: as above; format: cell-based, mouse; conditions: 15 μM for 24 hr
# Text: as §3
# JC cell = assay: MTT cell survival assay; format: cell-based, mouse; conditions: 24 hr
# Protocol: as §4, §5
# B16OVA [8] = assay: Level of AKT, pAKT, ERK and p-ERK in treated cells; format: cell-based, murine; conditions: 15 μM, vs control cells
# Text: (§6) […]. The EGFR signaling regulates cell proliferation through activates EGFR's intrinsic kinase and leads to activation of several downstream intracellular signaling pathways, including rat sarcoma-MAPK kinase (MEK)-extracellular-related kinase (ERK) and phosphoinositide 3-kinase (PI3K)-Akt pathways. It was reported the opposing effects of V1 and V2 on cell proliferation. […] […].
# zebrafish embryos = assay: Whole mount in situ hybridization (WISH) of snail, versican and cdh5 in zebrafish embryos; format: in vivo
# Protocol: as §2, with “-20°” for “−20°”, “AVC. […] During mouse embryonic valve formation, Snail (Snail) in Snail family acts as the […] of cdh5 that inhibit the transcription of cdh5. […] WISH was performed as previously described (Nucleic Acids Res 2010; 38:4384-93). Riboprobe of cdh5 was prepared by cloning its partial DNA fragment, while riboprobe of versican was provided by […] (Nature 2003; 425:633-7). […] FIG. 7H).” for “AVC.”
# EGFR = EGFR signaling in zebrafish embryos (EGFR dimers, EGFR phosphorylation, GSK3β); format: in vivo
# 4T-1 cells [9] = assay: Level of AKT, pAKT, ERK and p-ERK in treated cells; format: cell-based, mouse; conditions: 15 μM, vs control cells
# Text: as §6
# JC [10] = assay: Level of AKT, pAKT, ERK and p-ERK in treated cells; format: cell-based, mouse; conditions: 15 μM, vs control cells
# Text: as §6
# Cdh5 = assay: Western blot of Cdh5 protein in zebrafish embryos; format: in vivo; conditions: 1.5 ng injected at one cell stage, 72 hpf embryos
# Protocol: Cdh5 antibody was used to detect the amount of Cdh5 protein expression by Western blot. The embryos were dechorionated and deyolked with two extra washing steps as described in Link et al. (BMC Dev Biol 2006; 6:1). Deyolked samples were dissolved in 2 μl of 2×SDS sample buffer for each embryo and incubated for 5 min at 95[…]. After full-speed centrifugation for 1 min in a microcentrifuge to remove insoluble particles, total proteins extracted from embryos were analyzed on a 12% SDS-PAGE gel, and Western blot analysis was performed (J Biol Chem 2011; 286:6855-64) using antiserum against mouse Cdh5 (15; 1:10,000). Anti-α-tubulin and anti-β-actin served as a protein loading control. Knockdown experiments were performed as follows: morpholino nucleic acid oligomers (MOs) were purchased from GeneTools (USA): vcana-MO ([…], SEQ ID NO: 1); s-vcanb-MO ([…], SEQ ID NO: 2); snai1b-MO ([…], SEQ ID NO: 3) (Development 134, 4073-4081, 2007); cdh5-MO ([…], SEQ ID NO: 4) (Developmental Dynamics. 2004. 231, 204-213; PloS One 2010. 5, e8807); troponin T2a, cardiac-MO (5′-[…]-3′, SEQ ID NO: 5) (Nat. Genet. 2002. 31, 106-110); and standard control-MO ([…], SEQ ID NO: 6). […]
compound,measurement,setting,value
CO[C@@]12[C@H](COC(N)=O)C3=C(C(=O)C(C)=C(N)C3=O)N1C[C@@H]1N[C@@H]12 [Mitomycin C],time course of wound closure,"B16OVA cells; Mitomycin C alone, 10 μg/ml",did not affect the time course of wound closure
same,time course of wound closure,JC cells [1],did not affect the time course of wound closure
CCCCc1oc2ccccc2c1C(=O)c1cc(I)c(OCCN(CC)CC)c(I)c1 [Amiodarone],tumor growth,JC cells [2],grew slower
same,endocardial cells at the AVC,[3]; 15 μM during 12-48 hpf,no difference between treated and untreated embryos
same,valve structure,[3]; 15 μM during 12-72 hpf,only a small aggregation of cells were seen at the upper valve site
same,cellular aggregation at the valve region,"[3]; 15 μM during 12-87 hpf, compared to untreated embryos",almost no cellular aggregation at the valve region
same,E-cadherin protein level,B16OVA [4],increased significantly
same,Snail protein level,B16OVA [4],greatly reduced
same,Versican V1 expression,B16OVA [4],reduced
same,Versican V2 expression,B16OVA [4]; vs control cells,increased
same,cell survival (MTT),B16OVA [5]; 15 μM,did not influence
same,cell survival (MTT),B16OVA [5]; 10˜30 μM,does not influence
same,expression of S-vcanb protein,S-vcanb,increased
same,E-cadherin protein level,4T-1 cells [6],increased significantly
same,Snail protein level,4T-1 cells [6],greatly reduced
same,Versican V1 expression,4T-1 cells [6],no difference
same,Versican V2 expression,4T-1 cells [6]; vs control cells,increased
same,E-cadherin protein level,JC [7],increased significantly
same,Snail protein level,JC [7],greatly reduced
same,Versican V1 expression,JC [7],reduced
same,Versican V2 expression,JC [7]; vs control cells,increased
same,cell survival (MTT),JC cell; 15 μM,did not influence
same,cell survival (MTT),JC cell; 10˜30 μM,does not influence
same,morphological change,"B16OVA cells; cells at a growing phase, vs control cells",appeared more stripe and spread out than control cells
same,phosphorylated AKT,B16OVA [8],reduced greatly
same,phosphorylated ERK42/44,B16OVA [8],reduced greatly
same,total level of AKT,B16OVA [8],unchanged
same,total level of ERK,B16OVA [8],unchanged
same,snai1b mRNA expression at the AVC,"zebrafish embryos; 15 μM, treated during 55-72 hpf, observed at 72 hpf",lost and decreased or even disappeared
same,vcana and s-vcanb expression at the heart field,zebrafish embryos; 72 hpf embryos,induced
same,snai1a mRNA expression in the heart,"zebrafish embryos; treated during 55-72 hpf, observed at 72 hpf",still was not expressed in the heart
same,EGFR dimeration,EGFR; 72 hpf treated embryos,increased
same,activity of GSK3β,EGFR; Amiodarone treated embryos,increased significantly
same,total level of GSK3β,EGFR; Amiodarone treated embryos,unchanged
same,phosphorylation of EGFR (Tyr-845),"EGFR; treated embryos, dosage dependent manner",reduced
same,phosphorylated AKT,4T-1 cells [9],reduced greatly
same,phosphorylated ERK42/44,4T-1 cells [9],reduced greatly
same,total level of AKT,4T-1 cells [9],unchanged
same,total level of ERK,4T-1 cells [9],unchanged
same,phosphorylated AKT,JC [10],reduced greatly
same,phosphorylated ERK42/44,JC [10],reduced greatly
same,total level of AKT,JC [10],unchanged
same,total level of ERK,JC [10],unchanged
"snail1b-MO: morpholino nucleic acid oligomer TTGACAAGA AATGAGCGTGGCATCT, SEQ ID NO: 3 (antisense TTGACAAGAAATGAGCGTGGCATCT; all phosphorodiamidate morpholino (PMO))",expression of Cdh5 protein relative to wild-type,Cdh5,1.5 fold
COc1cc2ncnc(Nc3cccc(Cl)c3)c2cc1OC [AG1478],cdh5 expression at the heart field,"zebrafish embryos; 7 μM, embryos at 55 to 72 hpf",ectopic expression
same,snail1b expression,"zebrafish embryos; 7 μM, embryos at 55 to 72 hpf",lost
same,activity of GSK3β,"EGFR; AG1478 treatment, 7 μM",increased significantly
same,total level of GSK3β,"EGFR; AG1478 treatment, 7 μM",unchanged
